The values that follow come from PubChem BioAssay AID256 (DTP/NCI, 2004).

For the assay, the system named is CD2F1 mice, L1210 leukemia ip, survival T/C. Briefly: NCI In Vivo Anticancer Drug Screen. Data for tumor model L1210 Leukemia (intraperitoneal) in CD2F1 (CDF1) mice. The following applies: higher = longer survival. The gist of the method:
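Mice carrying a transplanted tumor received test compound or vehicle alone. The value is the measurement in the treated group divided by that in the vehicle-treated control group.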

The mark [1] stands for this setting: endpoint: mean survival time, dose: 50.0 mg/kg/injection, schedule: Q04DX003 (ip), vehicle: Klucel (hydroxypropylcellulose) (HPC).
Where [2] appears, read: endpoint: mean survival time, dose: 100.0 mg/kg/injection, schedule: Q04DX003 (ip), vehicle: Klucel (hydroxypropylcellulose) (HPC).
Where [3] appears, read: endpoint: mean survival time, dose: 200.0 mg/kg/injection, schedule: Q04DX003 (ip), vehicle: Klucel (hydroxypropylcellulose) (HPC).
Where [4] appears, read: endpoint: mean survival time, dose: 100.0 mg/kg/injection, schedule: Q01DX001 (ip), vehicle: saline with Tween-80.
Setting [5] is: endpoint: mean survival time, dose: 100.0 mg/kg/injection, schedule: Q04DX003 (ip), vehicle: saline with Tween-80.
Where [6] appears, read: endpoint: mean survival time, dose: 200.0 mg/kg/injection, schedule: Q04DX003 (ip), vehicle: saline with Tween-80.
The mark [7] stands for this setting: endpoint: mean survival time, dose: 400.0 mg/kg/injection, schedule: Q04DX003 (ip), vehicle: saline with Tween-80.
Where [8] appears, read: endpoint: mean survival time, dose: 25.0 mg/kg/injection, schedule: Q04DX003 (ip), vehicle: Klucel (hydroxypropylcellulose) (HPC).

Structures are written as SMILES. Values joined by “and” are separate entries in the source; they are usually repeats but may differ in a detail not shown here. Equal entries are not always repeated. Inconclusive results and toxic doses are left out.

`COc1cc2c(cc1O)N=C[C@@H]1CCC(O)N1C2=O` (mixture of isomers): the T/C (endpoint: mean survival time, dose: 0.5 mg/kg/injection, schedule: Q01DX009 (ip), vehicle: saline) was 108 % of control; the T/C (endpoint: mean survival time, dose: 1.0 mg/kg/injection, schedule: Q01DX009 (ip), vehicle: saline) was 102 % of control and 108 % of control; the T/C (endpoint: mean survival time, dose: 2.0 mg/kg/injection, schedule: Q01DX009 (ip), vehicle: saline) was 118 % of control and 111 % of control; the T/C (endpoint: mean survival time, dose: 4.0 mg/kg/injection, schedule: Q01DX009 (ip), vehicle: saline) was 113 % of control and 117 % of control; the T/C (endpoint: mean survival time, dose: 8.0 mg/kg/injection, schedule: Q01DX009 (ip), vehicle: saline) was 106 % of control and 107 % of control; the T/C (endpoint: median survival time, dose: 0.1 mg/kg/injection, schedule: Q01DX005 (ip), vehicle: saline) was 102 % of control. The T/C runs as follows: (endpoint: median survival time, dose: 0.2 mg/kg/injection, schedule: Q01DX005 (ip), vehicle: saline) 102 % of control; (endpoint: median survival time, dose: 0.4 mg/kg/injection, schedule: Q01DX005 (ip), vehicle: saline) 102 % of control; (endpoint: median survival time, dose: 0.8 mg/kg/injection, schedule: Q01DX005 (ip), vehicle: saline) 102 % of control; (endpoint: median survival time, dose: 1.6 mg/kg/injection, schedule: Q01DX005 (ip), vehicle: saline) 107 % of control.

In the case of `CNC(=O)Nc1nc2ccccc2[nH]1`, the T/C was 101 % of control under setting [1]; 102 % of control under setting [2]; 104 % of control under setting [3]; 102 % of control (endpoint: mean survival time, dose: 400.0 mg/kg/injection, schedule: Q04DX003 (ip), vehicle: Klucel (hydroxypropylcellulose) (HPC)).

With `O/N=C1\CCCC\C1=N/O.O/N=C1\CCCC\C1=N/O.[Pt]`, the T/C by setting is: (endpoint: mean survival time, dose: 3.13 mg/kg/injection, schedule: Q04DX003 (ip), vehicle: dextrose) 98 % of control; (endpoint: mean survival time, dose: 6.25 mg/kg/injection, schedule: Q04DX003 (ip), vehicle: dextrose) 98 % of control; (endpoint: mean survival time, dose: 12.5 mg/kg/injection, schedule: Q04DX003 (ip), vehicle: dextrose) 101 % of control; (endpoint: mean survival time, dose: 25.0 mg/kg/injection, schedule: Q04DX003 (ip), vehicle: dextrose) 98 % of control; (endpoint: mean survival time, dose: 50.0 mg/kg/injection, schedule: Q04DX003 (ip), vehicle: dextrose) 97 % of control and 101 % of control; (endpoint: mean survival time, dose: 100.0 mg/kg/injection, schedule: Q04DX003 (ip), vehicle: dextrose) 93 % of control and 101 % of control. For the same compound, the T/C was 96 % of control and 101 % of control (endpoint: mean survival time, dose: 200.0 mg/kg/injection, schedule: Q04DX003 (ip), vehicle: dextrose); 101 % of control (endpoint: mean survival time, dose: 400.0 mg/kg/injection, schedule: Q04DX003 (ip), vehicle: dextrose).

With `Cc1c2c(c(O)c3c(O)cccc13)C(=O)C1(O)C(O)=C(C(N)=O)C(=O)CC1C2` (stereo not given), the T/C was 92 % of control (endpoint: mean survival time, dose: 75.0 mg/kg/injection, schedule: Q01DX001 (ip), vehicle: other); 94 % of control (endpoint: mean survival time, dose: 150.0 mg/kg/injection, schedule: Q01DX001 (ip), vehicle: other); 102 % of control (endpoint: mean survival time, dose: 300.0 mg/kg/injection, schedule: Q01DX001 (ip), vehicle: other).

With `CC(=O)Oc1ccc(/C=C2\CCOC2=O)cc1`, the T/C was 112 % of control (endpoint: mean survival time, dose: 7.82 mg/kg/injection, schedule: Q01DX005 (ip), vehicle: Klucel (hydroxypropylcellulose) (HPC)); 101 % of control (endpoint: mean survival time, dose: 15.63 mg/kg/injection, schedule: Q01DX005 (ip), vehicle: Klucel (hydroxypropylcellulose) (HPC)); 106 % of control (endpoint: mean survival time, dose: 31.25 mg/kg/injection, schedule: Q01DX005 (ip), vehicle: Klucel (hydroxypropylcellulose) (HPC)); 107 % of control (endpoint: mean survival time, dose: 62.5 mg/kg/injection, schedule: Q01DX005 (ip), vehicle: Klucel (hydroxypropylcellulose) (HPC)); 109 % of control (endpoint: mean survival time, dose: 125.0 mg/kg/injection, schedule: Q01DX005 (ip), vehicle: Klucel (hydroxypropylcellulose) (HPC)); 109 % of control (endpoint: mean survival time, dose: 250.0 mg/kg/injection, schedule: Q01DX005 (ip), vehicle: Klucel (hydroxypropylcellulose) (HPC)).

Consider `COc1cc(/C=C/C=C/C(=O)N2CCCCC2)ccc1O`, for which the T/C is, setting by setting: (endpoint: mean survival time, dose: 12.5 mg/kg/injection, schedule: Q01DX009 (ip), vehicle: saline with Tween-80) 97 % of control; (endpoint: mean survival time, dose: 25.0 mg/kg/injection, schedule: Q01DX009 (ip), vehicle: saline with Tween-80) 100 % of control; (endpoint: mean survival time, dose: 50.0 mg/kg/injection, schedule: Q01DX009 (ip), vehicle: saline with Tween-80) 113 % of control.

Turning to `CC(C)(CNC1CCCCC1)OC(=O)c1ccc(N)cc1`, the T/C reads like this: (endpoint: mean survival time, dose: 5.0 mg/kg/injection, schedule: Q01DX001 (ip), vehicle: saline) 102 % of control; (endpoint: mean survival time, dose: 10.0 mg/kg/injection, schedule: Q01DX001 (ip), vehicle: saline) 96 % of control; (endpoint: mean survival time, dose: 20.0 mg/kg/injection, schedule: Q01DX001 (ip), vehicle: saline) 98 % of control; (endpoint: mean survival time, dose: 40.0 mg/kg/injection, schedule: Q01DX001 (ip), vehicle: saline) 104 % of control.

Consider `C=C1C(=O)OC2C1C(OC(=O)/C(=C/C)COC(C)=O)CC1(CO1)C1C(OC(=O)/C(=C/C)CO)C=C(C)C21` (stereo not given), for which the T/C under setting [4] is 88 % of control and the T/C (endpoint: mean survival time, dose: 400.0 mg/kg/injection, schedule: Q01DX001 (ip), vehicle: saline with Tween-80) is 93 % of control.

Take `CS(=O)(=O)C([N+](=O)[O-])S(C)(=O)=O`: the T/C (endpoint: mean survival time, dose: 100.0 mg/kg/injection, schedule: Q01DX001 (ip), vehicle: saline) is 101 % of control; the T/C (endpoint: mean survival time, dose: 200.0 mg/kg/injection, schedule: Q01DX001 (ip), vehicle: saline) is 101 % of control; the T/C (endpoint: mean survival time, dose: 400.0 mg/kg/injection, schedule: Q01DX001 (ip), vehicle: saline) is 97 % of control.

With `O=C(Nc1cccc(Cl)c1)c1ccccc1`, the T/C is 103 % of control (endpoint: mean survival time, dose: 100.0 mg/kg/injection, schedule: Q01DX009 (ip), vehicle: saline with Tween-80); 91 % of control under setting [5]; 89 % of control (endpoint: mean survival time, dose: 200.0 mg/kg/injection, schedule: Q01DX009 (ip), vehicle: saline with Tween-80); 110 % of control under setting [6]; 98 % of control (endpoint: mean survival time, dose: 400.0 mg/kg/injection, schedule: Q01DX009 (ip), vehicle: saline with Tween-80); 94 % of control under setting [7].

With `CC(=O)N(C)N=Nc1ccc([N+](=O)[O-])cc1`, the T/C under setting [8] was 103 % of control, the T/C under setting [1] is 103 % of control, the T/C under setting [2] is 97 % of control and the T/C under setting [3] was 114 % of control.

Regarding `CC1(C)CC(O)(Cc2ccccc2)C(O)c2ccccc21` (stereo not given), the T/C reads like this: under setting [5], 93 % of control; under setting [6], 97 % of control; under setting [7], 93 % of control.

As for `CC(C)O.CC(C)O.CC(C)O.[La]`, the T/C by setting is: (endpoint: mean survival time, dose: 100.0 mg/kg/injection, schedule: Q04DX003 (ip), vehicle: saline) 97 % of control; (endpoint: mean survival time, dose: 200.0 mg/kg/injection, schedule: Q04DX003 (ip), vehicle: saline) 87 % of control; (endpoint: mean survival time, dose: 400.0 mg/kg/injection, schedule: Q04DX003 (ip), vehicle: saline) 89 % of control.

For `CC(O)CC1CCCC(C)N1` (stereo not given), the T/C is, setting by setting: (endpoint: mean survival time, dose: 50.0 mg/kg/injection, schedule: Q04DX003 (ip), vehicle: saline with Tween-80) 90 % of control and 100 % of control; under setting [4], 101 % of control; (endpoint: mean survival time, dose: 100.0 mg/kg/injection, schedule: Q04DX002 (ip), vehicle: saline with Tween-80) 100 % of control and 106 % of control; under setting [5], 100 % of control and 101 % of control; (endpoint: mean survival time, dose: 200.0 mg/kg/injection, schedule: Q01DX001 (ip), vehicle: saline with Tween-80) 101 % of control; (endpoint: mean survival time, dose: 200.0 mg/kg/injection, schedule: Q04DX002 (ip), vehicle: saline with Tween-80) 98 % of control and 100 % of control. Also, the T/C under setting [6] is 93 % of control and 100 % of control.

Take `CC/C(=C\c1ccc(Cl)cc1)[N+](=O)[O-]`: the T/C (endpoint: mean survival time, dose: 12.5 mg/kg/injection, schedule: Q04DX003 (ip), vehicle: Klucel (hydroxypropylcellulose) (HPC)) is 102 % of control; the T/C under setting [8] was 97 % of control; the T/C under setting [1] is 97 % of control.

Consider `COC1OC(CNC(=O)N(C)N=O)C(O)C(O)C1O` (stereo not given), for which the T/C was 120 % of control (endpoint: mean survival time, dose: 33.0 mg/kg/injection, schedule: Q01DX009 (ip), vehicle: saline) and 153 % of control (endpoint: mean survival time, dose: 113.0 mg/kg/injection, schedule: Q01DX009 (ip), vehicle: saline).

As to `[O-]/[N+](=C\c1ccccc1)c1ccccc1`, the T/C was 97 % of control under setting [5] and 90 % of control under setting [6].

Consider `COc1cc2ccncc2cc1O`, for which the T/C was 96 % of control (endpoint: mean survival time, dose: 25.0 mg/kg/injection, schedule: Q01DX009 (ip), vehicle: water) and 96 % of control (endpoint: mean survival time, dose: 50.0 mg/kg/injection, schedule: Q01DX009 (ip), vehicle: water).
